Assay [1] relates to rabbit serum obtained by immunizing a rabbit with the SARS-CoV strain Frankfurt 1. Type of assay: binding. Also noted: Binding of a rabbit serum to linear peptides / Binding of a rabbit serum to looped peptides / Rabbit serum linear peptides / Rabbit serum looped peptides / Binding of a rabbit serum to linear peptides of protein N of SARS-CoV Urbani (Rabbit serum linear peptides) / Binding of a rabbit serum to looped/cyclic peptides of protein N of SARS-CoV Urbani (Rabbit serum looped peptides): unit not given here.

Assay [2] has as its system antibodies in sera from SARS patients (sera 1a, 1b, 2, 6, 37, 62, London, SARS-yellow, SARS-green). Type of assay: binding, human. Also noted: Binding of serum 6 to linear peptides of protein X1 of SARS-CoV Urbani / Binding of serum 37 to linear peptides of protein X1 of SARS-CoV Urbani / Binding of serum 6 to looped/cyclic peptide (PEPSCAN-ELISA) / Binding of serum 37 to looped/cyclic peptide (PEPSCAN-ELISA) / Binding of serum 37 to looped/cyclic peptides of protein X1 of SARS-CoV Urbani / Binding of serum 6 to linear peptides of protein X2 / Binding of serum 37 to linear peptides of protein X2 / Binding of serum 37 to looped/cyclic peptides of protein X2 of SARS-CoV Urbani / Binding of serum 6 to linear peptides of protein M of SARS-CoV Urbani / Binding of serum 37 to linear peptides of protein M of SARS-CoV Urbani / Binding of serum 6 to looped/cyclic peptides of protein M of SARS-CoV Urbani / Binding of serum 37 to looped/cyclic peptides of protein M of SARS-CoV Urbani / Binding of serum 6 to linear peptides of protein X3 of SARS-CoV Urbani / Binding of serum 37 to linear peptides of protein X3 of SARS-CoV Urbani / Binding of serum 37 to looped/cyclic peptides of protein X3 of SARS-CoV Urbani / Binding of serum 6 to linear peptides of protein X4 of SARS-CoV Urbani / Binding of serum 37 to linear peptides of protein X4 of SARS-CoV Urbani / Binding of serum 37 to looped/cyclic peptides of protein X4 of SARS-CoV Urbani / Binding of serum 6 to linear peptides of protein X5 of SARS-CoV Urbani / Binding of serum 37 to linear peptides of protein X5 of SARS-CoV Urbani / Binding of serum 37 to looped/cyclic peptides of protein X5 of SARS-CoV Urbani / Binding of serum 6 to linear peptides of protein N of SARS-CoV Urbani / Binding of serum 37 to linear peptides of protein N of SARS-CoV Urbani / Binding of serum 6 to linear peptide (PEPSCAN-ELISA) / Binding of serum 1a to looped/cyclic peptides of protein N of SARS-CoV Urbani / Binding of serum 1b to looped/cyclic peptides of protein N of SARS-CoV Urbani / Binding of serum 2 to looped/cyclic peptides of protein N of SARS-CoV Urbani / Binding of serum 6 to looped/cyclic peptides of protein N of SARS-CoV Urbani / Binding of serum 37 to looped/cyclic peptides of protein N of SARS-CoV Urbani / Binding of serum 62 to looped/cyclic peptides of protein N of SARS-CoV Urbani / Binding of serum London to looped/cyclic peptides of protein N of SARS-CoV Urbani / Binding of serum SARS-green to looped/cyclic peptides of protein N of SARS-CoV Urbani: unit not given here.

The test system of assay [3] is control sera (pooled serum of ten healthy LUMC hospital workers; commercial negative donor pooled serum from the Dutch bloodbank). The format is binding, human. Also noted: Binding of Control serum LUMC to linear peptides / Binding of Control serum Blood-bank to linear peptides / Binding of Control serum LUMC to looped peptides / Binding of Control Serum Blood-Bank to Looped peptides / Binding of Control serum LUMC to linear peptides of the protein M of SARS-CoV Urbani / Binding of Control serum Blood-bank to linear peptides of the protein M of SARS-CoV Urbani / Binding of Control serum LUMC to looped peptides of the protein M of SARS-CoV Urbani / Binding of Control Serum Blood-Bank to Looped peptides of the protein M of SARS-CoV Urbani: unit not given here.

Regarding TIPLQASLPFGWLVI, in assay [1], the “Binding of a rabbit serum to linear peptides” value came to 0.1 and the “Binding of a rabbit serum to looped peptides” value turned out to be 0.5. Besides, in assay [2], the “Binding of serum 1a to linear peptides of protein X1 of SARS-CoV Urbani” value is 0.8, the “Binding of serum 1a to looped/cyclic peptide (PEPSCAN-ELISA)” value is 0.6, the “Binding of serum 1b to linear peptides of protein X1 of SARS-CoV Urbani” value is 0.5 and the “Binding of serum 1b to looped/cyclic peptide (PEPSCAN-ELISA)” value was 0.4. Moreover, in assay [2], the “Binding of serum 2 to linear peptides of protein X1 of SARS-CoV Urbani” value was 0.6, the “Binding of serum 2 to looped/cyclic peptide (PEPSCAN-ELISA)” value was found to be 0.5, the “Binding of serum 6 to linear peptides of protein X1 of SARS-CoV Urbani” value was determined as 0.5 and the “Binding of serum 6 to looped/cyclic peptide (PEPSCAN-ELISA)” value turned out to be 0.4. Besides, in assay [2], the “Binding of serum 37 to linear peptides of protein X1 of SARS-CoV Urbani” value stood at 0.7, the “Binding of serum 37 to looped/cyclic peptide (PEPSCAN-ELISA)” value was 0.6, the “Binding of serum 62 to linear peptides of protein X1 of SARS-CoV Urbani” value turned out to be 0.8 and the “Binding of serum 62 to looped/cyclic peptide (PEPSCAN-ELISA)” value is 0.7. In assay [2], the “Binding of serum London to linear peptides of protein X1 of SARS-CoV Urbani” value worked out at 0.3, the “Binding of serum London to looped/cyclic peptide (PEPSCAN-ELISA)” value is reported as 0.2, the “Binding of serum SARS-green to linear peptides of protein X1 of SARS-CoV Urbani” value was 0.4 and the “Binding of serum SARS-green to looped/cyclic peptide (PEPSCAN-ELISA)” value is listed as 0.4. In addition, in assay [2], the “Binding of serum SARS-yellow to linear peptides of protein X1 of SARS-CoV Urbani” value is recorded as 0.4 and the “Binding of serum SARS-yellow to looped/cyclic peptide (PEPSCAN-ELISA)” value came to 0.5. In addition, in assay [3], the “Binding of Control Serum Blood-Bank to Looped peptides” value was 0.7, the “Binding of Control serum Blood-bank to linear peptides” value came to 0.8, the “Binding of Control serum LUMC to linear peptides” value came out at 0.7 and the “Binding of Control serum LUMC to looped peptides” value was found to be 0.7.

Consider TIVVTEGDGISTPKL, for which, in assay [1], the “Binding of a rabbit serum to linear peptides” value is reported as 0.1 and the “Binding of a rabbit serum to looped peptides” value came out at 0.5. In assay [2], the “Binding of serum 1a to linear peptides of protein X1 of SARS-CoV Urbani” value worked out at 0.6, the “Binding of serum 1a to looped/cyclic peptides of protein X1 of SARS-CoV Urbani” value is 0.7, the “Binding of serum 1b to linear peptides of protein X1 of SARS-CoV Urbani” value turned out to be 0.5 and the “Binding of serum 1b to looped/cyclic peptides of protein X1 of SARS-CoV Urbani” value is reported as 0.7. In assay [2], the “Binding of serum 2 to linear peptides of protein X1 of SARS-CoV Urbani” value stood at 0.5, the “Binding of serum 2 to looped/cyclic peptides of protein X1 of SARS-CoV Urbani” value is 0.5, the “Binding of serum 6 to linear peptides of protein X1 of SARS-CoV Urbani” value is listed as 0.6 and the “Binding of serum 6 to looped/cyclic peptides of protein X1 of SARS-CoV Urbani” value is given as 0.4. In assay [2], the “Binding of serum 37 to linear peptides of protein X1 of SARS-CoV Urbani” value stood at 0.6, the “Binding of serum 37 to looped/cyclic peptides of protein X1 of SARS-CoV Urbani” value turned out to be 0.7, the “Binding of serum 62 to linear peptides of protein X1 of SARS-CoV Urbani” value is 0.5 and the “Binding of serum 62 to looped/cyclic peptides of protein X1 of SARS-CoV Urbani” value was 0.6. For the same sequence, in assay [2], the “Binding of serum London to linear peptides of protein X1 of SARS-CoV Urbani” value amounted to 0.3, the “Binding of serum London to looped/cyclic peptides of protein X1 of SARS-CoV Urbani” value is given as 0.2, the “Binding of serum SARS-green to linear peptides of protein X1 of SARS-CoV Urbani” value is given as 0.3 and the “Binding of serum SARS-green to looped/cyclic peptides of protein X1 of SARS-CoV Urbani” value is on record as 0.6. Further, in assay [2], the “Binding of serum SARS-yellow to linear peptides of protein X1 of SARS-CoV Urbani” value came to 0.3 and the “Binding of serum SARS-yellow to looped/cyclic peptides of protein X1 of SARS-CoV Urbani” value was determined as 0.5. Moreover, in assay [3], the “Binding of Control Serum Blood-Bank to Looped peptides” value is 0.6, the “Binding of Control serum Blood-bank to linear peptides” value stood at 0.5, the “Binding of Control serum LUMC to linear peptides” value is 0.5 and the “Binding of Control serum LUMC to looped peptides” value came to 0.7.

Turning to TPNVTINCQDPAGGA, in assay [1], the “Rabbit serum linear peptides” value is listed as 0.0 and the “Rabbit serum looped peptides” value worked out at 0.1. In addition, in assay [2], the “Binding of serum 1a to linear peptides of protein X5 of SARS-CoV Urbani” value is reported as 0.8, the “Binding of serum 1a to looped/cyclic peptides of protein X5 of SARS-CoV Urbani” value was found to be 0.4, the “Binding of serum 1b to linear peptides of protein X5 of SARS-CoV Urbani” value was found to be 0.4 and the “Binding of serum 2 to linear peptides of protein X5 of SARS-CoV Urbani” value was determined as 0.4. Moreover, in assay [2], the “Binding of serum 2 to looped/cyclic peptides of protein X5 of SARS-CoV Urbani” value is reported as 0.3, the “Binding of serum 6 to linear peptides of protein X5 of SARS-CoV Urbani” value turned out to be 0.1, the “Binding of serum 6 to looped/cyclic peptides of protein X5 of SARS-CoV Urbani” value is recorded as 0.1 and the “Binding of serum 37 to linear peptides of protein X5 of SARS-CoV Urbani” value is 0.8. Further, in assay [2], the “Binding of serum 37 to looped/cyclic peptides of protein X5 of SARS-CoV Urbani” value worked out at 0.4, the “Binding of serum 62 to linear peptides of protein X5 of SARS-CoV Urbani” value is listed as 0.5, the “Binding of serum 62 to looped/cyclic peptides of protein X5 of SARS-CoV Urbani” value is given as 0.2 and the “Binding of serum London to linear peptides of protein X5 of SARS-CoV Urbani” value is reported as 0.6. In assay [2], the “Binding of serum London to looped/cyclic peptides of protein X5 of SARS-CoV Urbani” value is reported as 0.1, the “Binding of serum SARS-green to linear peptides of protein X5 of SARS-CoV Urbani” value came out at 0.4, the “Binding of serum SARS-green to looped/cyclic peptides of protein X5 of SARS-CoV Urbani” value was 0.2 and the “Binding of serum SARS-yellow to linear peptides of protein X5 of SARS-CoV Urbani” value came out at 0.0. In addition, the “Binding of serum SARS-yellow to looped/cyclic peptides of protein X5 of SARS-CoV Urbani” value in assay [2] was determined as 0.2. Further, in assay [3], the “Binding of Control Serum Blood-Bank to Looped peptides” value is on record as 0.3, the “Binding of Control serum Blood-bank to linear peptides” value is recorded as 0.6, the “Binding of Control serum LUMC to linear peptides” value turned out to be 0.5 and the “Binding of Control serum LUMC to looped peptides” value was 0.2.

TRGNTYSTAWLCALG: in assay [1], the “Rabbit serum linear peptides” value is reported as 0.7 and the “Rabbit serum looped peptides” value came out at 0.0. In addition, in assay [2], the “Binding of serum 1a to linear peptides of protein X5 of SARS-CoV Urbani” value is 0.8, the “Binding of serum 1a to looped/cyclic peptides of protein X5 of SARS-CoV Urbani” value was 0.4, the “Binding of serum 1b to linear peptides of protein X5 of SARS-CoV Urbani” value amounted to 0.6 and the “Binding of serum 1b to looped/cyclic peptides of protein X5 of SARS-CoV Urbani” value was determined as 0.1. Also, in assay [2], the “Binding of serum 2 to linear peptides of protein X5 of SARS-CoV Urbani” value is given as 0.6, the “Binding of serum 2 to looped/cyclic peptides of protein X5 of SARS-CoV Urbani” value was 0.4, the “Binding of serum 6 to linear peptides of protein X5 of SARS-CoV Urbani” value is given as 0.6 and the “Binding of serum 6 to looped/cyclic peptides of protein X5 of SARS-CoV Urbani” value turned out to be 0.3. Moreover, in assay [2], the “Binding of serum 37 to linear peptides of protein X5 of SARS-CoV Urbani” value was determined as 0.8, the “Binding of serum 37 to looped/cyclic peptides of protein X5 of SARS-CoV Urbani” value is recorded as 0.4, the “Binding of serum 62 to linear peptides of protein X5 of SARS-CoV Urbani” value was found to be 0.8 and the “Binding of serum 62 to looped/cyclic peptides of protein X5 of SARS-CoV Urbani” value came to 0.6. Also, in assay [2], the “Binding of serum London to linear peptides of protein X5 of SARS-CoV Urbani” value was determined as 0.7, the “Binding of serum London to looped/cyclic peptides of protein X5 of SARS-CoV Urbani” value was found to be 0.2, the “Binding of serum SARS-green to linear peptides of protein X5 of SARS-CoV Urbani” value amounted to 0.6 and the “Binding of serum SARS-green to looped/cyclic peptides of protein X5 of SARS-CoV Urbani” value amounted to 0.3. In addition, in assay [2], the “Binding of serum SARS-yellow to linear peptides of protein X5 of SARS-CoV Urbani” value came out at 0.5 and the “Binding of serum SARS-yellow to looped/cyclic peptides of protein X5 of SARS-CoV Urbani” value was determined as 0.3. In assay [3], the “Binding of Control Serum Blood-Bank to Looped peptides” value was 0.4, the “Binding of Control serum Blood-bank to linear peptides” value came to 0.7, the “Binding of Control serum LUMC to linear peptides” value is on record as 0.6 and the “Binding of Control serum LUMC to looped peptides” value is 0.6.

For the origin of these results see patent publication US20070128217A1 (priority 2003, published 2007).
